What was measured:
[1] = target: Insulin-like growth factor 1 receptor (Homo sapiens) (UniProt P08069); conditions: Compound concentration 1000.0 nM
[2] = target: Phosphatidylinositol 4-phosphate 5-kinase type-1 gamma (Homo sapiens) (UniProt O60331); conditions: Compound concentration 1000.0 nM
[3] = target: Amine oxidase [flavin-containing] A (MAO-A) (Homo sapiens, UniProt P21397); experiment: MAOA Eurofins-Panlabs selectivity data (BI); design: mode of action inhibitor; conditions: compound concentration 10 uM, read-out: % Ctrl
[4] = target: Mitogen-activated protein kinase kinase kinase 12 (Homo sapiens) (UniProt Q12852); conditions: Compound concentration 1000.0 nM
[5] = target: Calcium/calmodulin-dependent protein kinase type 1 (Homo sapiens) (UniProt Q14012); conditions: Compound concentration 1000.0 nM
[6] = target: Mast/stem cell growth factor receptor Kit (Homo sapiens) (UniProt P10721); conditions: Compound concentration 1000.0 nM
[7] = target: MAP kinase-interacting serine/threonine-protein kinase 2 (Homo sapiens) (UniProt Q9HBH9); conditions: Compound concentration 1000.0 nM
[8] = target: 5'-AMP-activated protein kinase catalytic subunit alpha-2 (Homo sapiens) (UniProt P54646); conditions: Compound concentration 1000.0 nM
[9] = target: Sodium-dependent serotonin transporter (Homo sapiens) (UniProt P31645); experiment: 5HTTRANS/HU Eurofins-Panlabs selectivity data (BI); conditions: Compound concentration 10.0 uM
[10] = target: Serine/threonine-protein kinase 3 (Homo sapiens) (UniProt Q13188); conditions: Compound concentration 1000.0 nM
[11] = target: Tyrosine-protein kinase ZAP-70 (Homo sapiens) (UniProt P43403); conditions: Compound concentration 1000.0 nM
[12] = target: Voltage-dependent L-type calcium channel subunit alpha-1C (phenylalkylamine site) (Rattus norvegicus, UniProt P22002); experiment: CA+/PAASITE Eurofins-Panlabs selectivity data (BI); conditions: compound concentration 10 uM, read-out: % Ctrl
[13] = test system: GABA-B receptor (GABBR1, rat); experiment: GABAB/RA Eurofins-Panlabs selectivity data (BI); conditions: Compound concentration 10.0 uM
[14] = target: Dual specificity protein kinase CLK2 (Homo sapiens) (UniProt P49760); conditions: Compound concentration 1000.0 nM
[15] = target: Tyrosine-protein kinase Blk (Homo sapiens) (UniProt P51451); conditions: Compound concentration 1000.0 nM
[16] = target: Angiopoietin-1 receptor (Homo sapiens) (UniProt Q02763); conditions: Compound concentration 1000.0 nM
[17] = target: Polyunsaturated fatty acid lipoxygenase ALOX15 (Oryctolagus cuniculus) (UniProt P12530); experiment: 15LO Eurofins-Panlabs selectivity data (BI); conditions: Compound concentration 10.0 uM
[18] = target: Angiotensin-converting enzyme (Oryctolagus cuniculus) (UniProt P12822); experiment: ANGIOCONVENZ Eurofins-Panlabs selectivity data (BI); conditions: Compound concentration 10.0 uM
[19] = target: Dual specificity tyrosine-phosphorylation-regulated kinase 1B (Homo sapiens) (UniProt Q9Y463); conditions: Compound concentration 1000.0 nM
[20] = target: Alpha-2A adrenergic receptor (Homo sapiens) (UniProt P08913); conditions: Compound concentration 10.0 uM
[21] = target: Serine/threonine-protein kinase SIK1 (Homo sapiens) (UniProt P57059); conditions: Compound concentration 1000.0 nM
[22] = target: Serine/threonine-protein kinase PknB (Mycobacterium tuberculosis) (UniProt P9WI81); conditions: Compound concentration 1000.0 nM
[23] = target: Tyrosine-protein kinase JAK2 (Homo sapiens) (UniProt O60674); conditions: Compound concentration 1000.0 nM
[24] = target: Ephrin type-A receptor 8 (Homo sapiens) (UniProt P29322); conditions: Compound concentration 1000.0 nM
[25] = target: Mitogen-activated protein kinase kinase kinase 1 (Homo sapiens) (UniProt Q13233); conditions: Compound concentration 1000.0 nM
[26] = target: Type-2 angiotensin II receptor (Homo sapiens) (UniProt P50052); experiment: AT2/HU Eurofins-Panlabs selectivity data (BI); conditions: Compound concentration 10.0 uM
[27] = target: Tyrosine-protein kinase ABL1 (Homo sapiens) (UniProt P00519); conditions: Compound concentration 1000.0 nM
[28] = target: Serine/threonine-protein kinase 17B (Homo sapiens) (UniProt O94768); conditions: Compound concentration 1000.0 nM
[29] = target: Phosphorylase b kinase gamma catalytic chain, skeletal muscle/heart isoform (Homo sapiens) (UniProt Q16816); conditions: Compound concentration 1000.0 nM
[30] = test system: Tyrosine-protein kinase ABL1 (Homo sapiens), P00519 [Q252H]; conditions: Compound concentration 1000.0 nM
[31] = target: Serine/threonine-protein kinase N1 (Homo sapiens) (UniProt Q16512); conditions: Compound concentration 1000.0 nM
[32] = target: MAP kinase-interacting serine/threonine-protein kinase 1 (Homo sapiens) (UniProt Q9BUB5); conditions: Compound concentration 1000.0 nM
[33] = target: Serine/threonine-protein kinase RIO3 (Homo sapiens) (UniProt O14730); conditions: Compound concentration 1000.0 nM
[34] = target: Serine/threonine-protein kinase SIK2 (Homo sapiens) (UniProt Q9H0K1); conditions: Compound concentration 1000.0 nM
[35] = target: Focal adhesion kinase 1 (Homo sapiens) (UniProt Q05397); conditions: Compound concentration 1000.0 nM
[36] = target: Ribosomal protein S6 kinase alpha-4 (Homo sapiens) (UniProt O75676); conditions: Compound concentration 1000.0 nM
[37] = target: Epithelial discoidin domain-containing receptor 1 (Homo sapiens) (UniProt Q08345); conditions: Compound concentration 1000.0 nM
[38] = target: Testis-specific serine/threonine-protein kinase 3 (Homo sapiens) (UniProt Q96PN8); conditions: Compound concentration 1000.0 nM
[39] = target: Cyclin-dependent kinase 13 (Homo sapiens) (UniProt Q14004); conditions: Compound concentration 1000.0 nM
[40] = target: Mitogen-activated protein kinase kinase kinase 11 (Homo sapiens) (UniProt Q16584); conditions: Compound concentration 1000.0 nM
[41] = target: Voltage-dependent N-type calcium channel subunit alpha-1B (Rattus norvegicus) (UniProt Q02294); experiment: CA+/N/RA Eurofins-Panlabs selectivity data (BI); conditions: Compound concentration 10.0 uM
[42] = target: Histamine H2 receptor (Homo sapiens) (UniProt P25021); conditions: Compound concentration 10.0 uM
[43] = test system: Tyrosine-protein kinase ABL1 (Homo sapiens), P00519 [F317I]; conditions: Compound concentration 1000.0 nM
[44] = target: Phosphatidylinositol 4-phosphate 3-kinase C2 domain-containing subunit beta (Homo sapiens) (UniProt O00750); conditions: Compound concentration 1000.0 nM

Serine/threonine-protein kinase 3 (Homo sapiens), sequence (Q13188 whole entry): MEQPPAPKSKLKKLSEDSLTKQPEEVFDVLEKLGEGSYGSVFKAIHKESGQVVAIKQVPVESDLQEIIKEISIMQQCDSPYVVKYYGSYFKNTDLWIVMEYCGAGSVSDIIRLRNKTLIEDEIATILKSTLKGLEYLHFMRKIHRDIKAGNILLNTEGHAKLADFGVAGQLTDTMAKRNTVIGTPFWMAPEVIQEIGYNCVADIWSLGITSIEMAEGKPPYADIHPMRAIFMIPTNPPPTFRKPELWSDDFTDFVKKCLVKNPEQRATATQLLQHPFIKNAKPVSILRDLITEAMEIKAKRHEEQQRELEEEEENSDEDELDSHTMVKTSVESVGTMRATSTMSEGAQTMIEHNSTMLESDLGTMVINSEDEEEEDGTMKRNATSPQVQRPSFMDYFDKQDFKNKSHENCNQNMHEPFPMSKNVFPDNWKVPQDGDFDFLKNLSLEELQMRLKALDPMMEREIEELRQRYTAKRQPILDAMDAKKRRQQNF
Alpha-2A adrenergic receptor (Homo sapiens), sequence (P08913 whole entry): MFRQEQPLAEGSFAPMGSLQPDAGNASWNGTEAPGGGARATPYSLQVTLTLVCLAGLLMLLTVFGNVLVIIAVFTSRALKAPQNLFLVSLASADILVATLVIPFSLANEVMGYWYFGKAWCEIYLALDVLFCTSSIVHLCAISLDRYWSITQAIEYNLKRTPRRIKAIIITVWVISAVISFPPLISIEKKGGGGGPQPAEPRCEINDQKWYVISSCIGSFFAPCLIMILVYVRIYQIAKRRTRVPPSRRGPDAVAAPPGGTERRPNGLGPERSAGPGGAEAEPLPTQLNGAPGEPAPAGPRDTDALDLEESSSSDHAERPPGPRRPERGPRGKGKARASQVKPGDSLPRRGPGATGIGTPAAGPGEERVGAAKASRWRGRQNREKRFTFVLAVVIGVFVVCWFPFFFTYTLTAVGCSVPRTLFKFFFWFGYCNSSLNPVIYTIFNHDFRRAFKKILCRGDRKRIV
Mitogen-activated protein kinase kinase kinase 11 (Homo sapiens), sequence (Q16584 whole entry, looked up): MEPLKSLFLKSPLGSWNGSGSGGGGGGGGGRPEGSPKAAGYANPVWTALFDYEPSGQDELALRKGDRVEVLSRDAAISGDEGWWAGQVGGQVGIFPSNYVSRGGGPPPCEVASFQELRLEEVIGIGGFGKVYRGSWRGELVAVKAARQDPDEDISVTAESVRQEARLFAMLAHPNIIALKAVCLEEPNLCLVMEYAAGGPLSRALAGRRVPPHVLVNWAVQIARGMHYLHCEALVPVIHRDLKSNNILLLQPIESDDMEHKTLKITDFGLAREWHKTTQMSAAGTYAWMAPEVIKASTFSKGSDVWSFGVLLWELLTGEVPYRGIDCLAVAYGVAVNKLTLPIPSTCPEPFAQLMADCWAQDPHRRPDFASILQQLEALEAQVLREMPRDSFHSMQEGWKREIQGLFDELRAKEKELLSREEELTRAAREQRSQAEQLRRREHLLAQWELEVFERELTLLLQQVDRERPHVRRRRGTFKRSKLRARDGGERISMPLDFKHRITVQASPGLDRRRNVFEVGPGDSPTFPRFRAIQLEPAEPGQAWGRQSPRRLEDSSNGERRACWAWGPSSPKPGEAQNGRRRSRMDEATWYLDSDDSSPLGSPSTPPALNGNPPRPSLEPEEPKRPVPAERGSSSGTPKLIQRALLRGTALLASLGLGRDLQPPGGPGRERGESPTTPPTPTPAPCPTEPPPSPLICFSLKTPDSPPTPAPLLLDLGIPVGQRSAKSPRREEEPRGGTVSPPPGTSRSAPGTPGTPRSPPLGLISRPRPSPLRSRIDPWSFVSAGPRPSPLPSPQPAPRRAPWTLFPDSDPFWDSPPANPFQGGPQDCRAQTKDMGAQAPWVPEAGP
Mitogen-activated protein kinase kinase kinase 12 (Homo sapiens), sequence (Q12852 whole entry): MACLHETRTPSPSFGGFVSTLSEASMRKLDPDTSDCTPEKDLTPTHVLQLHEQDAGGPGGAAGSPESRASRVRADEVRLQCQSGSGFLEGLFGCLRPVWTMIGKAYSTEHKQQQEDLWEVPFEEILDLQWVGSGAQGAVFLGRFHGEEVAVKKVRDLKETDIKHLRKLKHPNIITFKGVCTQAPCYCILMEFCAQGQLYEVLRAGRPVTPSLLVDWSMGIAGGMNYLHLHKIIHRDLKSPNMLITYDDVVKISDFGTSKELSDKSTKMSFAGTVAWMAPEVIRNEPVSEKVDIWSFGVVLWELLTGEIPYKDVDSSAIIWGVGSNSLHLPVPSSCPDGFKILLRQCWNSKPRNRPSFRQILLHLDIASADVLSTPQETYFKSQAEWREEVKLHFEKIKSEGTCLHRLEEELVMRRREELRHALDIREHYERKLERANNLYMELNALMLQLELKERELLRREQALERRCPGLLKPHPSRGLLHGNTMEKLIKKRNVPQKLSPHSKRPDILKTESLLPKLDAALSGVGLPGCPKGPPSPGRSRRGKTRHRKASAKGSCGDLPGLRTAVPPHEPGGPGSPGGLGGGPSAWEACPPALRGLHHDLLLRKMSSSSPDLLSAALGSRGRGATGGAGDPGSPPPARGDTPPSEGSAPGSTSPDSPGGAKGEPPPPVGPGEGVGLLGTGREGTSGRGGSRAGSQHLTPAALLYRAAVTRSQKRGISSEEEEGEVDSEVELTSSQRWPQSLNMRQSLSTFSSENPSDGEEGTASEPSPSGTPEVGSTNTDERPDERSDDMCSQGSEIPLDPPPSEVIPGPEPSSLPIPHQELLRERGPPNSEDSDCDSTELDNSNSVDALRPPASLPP
Mast/stem cell growth factor receptor Kit (Homo sapiens), sequence (P10721 whole entry): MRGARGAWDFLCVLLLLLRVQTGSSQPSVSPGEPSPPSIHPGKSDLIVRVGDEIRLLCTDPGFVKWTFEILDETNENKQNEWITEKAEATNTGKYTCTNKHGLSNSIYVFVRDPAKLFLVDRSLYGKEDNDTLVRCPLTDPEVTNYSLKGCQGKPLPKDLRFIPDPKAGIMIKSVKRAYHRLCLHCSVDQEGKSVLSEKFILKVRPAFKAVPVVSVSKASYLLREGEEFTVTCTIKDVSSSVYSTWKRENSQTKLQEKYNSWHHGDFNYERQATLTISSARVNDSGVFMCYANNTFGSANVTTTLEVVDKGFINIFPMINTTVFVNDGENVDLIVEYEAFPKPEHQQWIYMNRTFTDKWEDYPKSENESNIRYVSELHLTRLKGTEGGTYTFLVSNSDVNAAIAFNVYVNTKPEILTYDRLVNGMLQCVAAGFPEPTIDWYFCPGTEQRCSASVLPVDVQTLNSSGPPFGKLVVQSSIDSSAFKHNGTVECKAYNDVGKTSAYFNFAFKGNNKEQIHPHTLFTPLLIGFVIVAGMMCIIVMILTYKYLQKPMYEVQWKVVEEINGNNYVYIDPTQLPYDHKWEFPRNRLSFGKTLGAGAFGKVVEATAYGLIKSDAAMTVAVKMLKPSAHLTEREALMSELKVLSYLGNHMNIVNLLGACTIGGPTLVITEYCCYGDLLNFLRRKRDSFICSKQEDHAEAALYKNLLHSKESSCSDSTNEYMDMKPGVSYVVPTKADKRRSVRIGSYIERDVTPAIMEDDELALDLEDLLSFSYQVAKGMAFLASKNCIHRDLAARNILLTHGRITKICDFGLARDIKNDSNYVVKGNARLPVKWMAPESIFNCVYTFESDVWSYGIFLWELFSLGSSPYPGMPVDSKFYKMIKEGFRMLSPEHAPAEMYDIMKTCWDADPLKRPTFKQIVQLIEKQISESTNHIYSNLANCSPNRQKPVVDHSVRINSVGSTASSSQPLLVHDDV
Type-2 angiotensin II receptor (Homo sapiens), sequence (P50052 whole entry): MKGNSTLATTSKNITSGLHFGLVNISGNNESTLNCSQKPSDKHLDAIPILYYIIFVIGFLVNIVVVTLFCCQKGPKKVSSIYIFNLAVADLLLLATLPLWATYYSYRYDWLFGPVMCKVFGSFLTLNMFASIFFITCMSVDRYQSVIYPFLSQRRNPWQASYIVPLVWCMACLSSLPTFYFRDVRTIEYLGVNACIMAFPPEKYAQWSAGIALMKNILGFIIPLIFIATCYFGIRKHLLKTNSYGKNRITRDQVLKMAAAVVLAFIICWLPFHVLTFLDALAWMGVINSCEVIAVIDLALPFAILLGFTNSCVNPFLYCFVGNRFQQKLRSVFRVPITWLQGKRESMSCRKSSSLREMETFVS
Serine/threonine-protein kinase PknB (Mycobacterium tuberculosis), sequence (P9WI81 whole entry): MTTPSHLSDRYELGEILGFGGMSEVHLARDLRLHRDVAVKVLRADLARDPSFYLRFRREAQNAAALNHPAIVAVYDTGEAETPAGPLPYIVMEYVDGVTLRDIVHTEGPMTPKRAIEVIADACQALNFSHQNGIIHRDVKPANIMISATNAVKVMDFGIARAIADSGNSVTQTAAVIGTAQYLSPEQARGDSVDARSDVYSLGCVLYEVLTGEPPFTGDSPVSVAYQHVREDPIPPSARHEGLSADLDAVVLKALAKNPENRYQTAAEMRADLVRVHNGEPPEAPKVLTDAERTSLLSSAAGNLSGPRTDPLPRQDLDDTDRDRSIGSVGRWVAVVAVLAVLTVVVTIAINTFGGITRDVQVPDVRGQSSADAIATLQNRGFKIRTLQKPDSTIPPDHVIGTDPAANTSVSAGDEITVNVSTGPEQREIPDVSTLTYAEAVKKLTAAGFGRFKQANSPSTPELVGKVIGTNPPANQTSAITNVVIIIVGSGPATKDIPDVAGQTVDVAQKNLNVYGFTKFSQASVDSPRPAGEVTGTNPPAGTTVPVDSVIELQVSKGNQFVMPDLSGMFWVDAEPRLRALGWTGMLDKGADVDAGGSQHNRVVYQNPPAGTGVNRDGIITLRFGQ
Calcium/calmodulin-dependent protein kinase type 1 (Homo sapiens), sequence (Q14012 whole entry, looked up): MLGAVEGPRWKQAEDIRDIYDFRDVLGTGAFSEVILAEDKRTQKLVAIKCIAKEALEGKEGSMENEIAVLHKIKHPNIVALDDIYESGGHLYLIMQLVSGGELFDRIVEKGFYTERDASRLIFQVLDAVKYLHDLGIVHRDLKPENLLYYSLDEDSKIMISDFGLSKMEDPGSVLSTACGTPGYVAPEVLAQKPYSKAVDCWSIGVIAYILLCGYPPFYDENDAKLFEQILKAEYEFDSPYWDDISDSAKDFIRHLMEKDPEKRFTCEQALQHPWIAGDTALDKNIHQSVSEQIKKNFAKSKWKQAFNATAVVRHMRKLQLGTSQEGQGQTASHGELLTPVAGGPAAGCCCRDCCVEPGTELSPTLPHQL

In the case of `CCOCCn1cc(C(=O)Nc2ccc(-n3nc(-c4cccnc4)cc3C(F)(F)F)cn2)ccc1=O` [BI 1935], the residual activity [1] is reported as 96%, the residual activity [2] is reported as 100% and the activity at 10 µM [3] is reported as 27%. For the same compound, the residual activity [4] was 100%, the residual activity [5] was 100% and the residual activity [6] was 89%. For the same compound, the residual activity [7] was 100%, the residual activity [8] was 100% and the residual activity [9] was 100%. For the same compound, the residual activity [10] was 100%, the residual activity [11] was 67% and the activity at 10 µM [12] was 88.5% (not active). The residual activity [13] was 94%, the residual activity [14] was 86% and the residual activity [15] was 89%. It also gave a residual activity [16] of 87%, a residual activity [17] of 92% and a residual activity [18] of 101%. It also gave a residual activity [19] of 39%, an inhibition [20] of -1.74% and a residual activity [21] of 100%. It also gave a residual activity [22] of 95%, a residual activity [23] of 91% and a residual activity [24] of 84%. The residual activity [25] was 84%, the residual activity [26] was 97% and the residual activity [27] was 61%. The residual activity [28] was 81%, the residual activity [29] was 100% and the residual activity [30] was 73%. It also gave a residual activity [31] of 76%, a residual activity [32] of 97% and a residual activity [33] of 88%. The residual activity [34] was 91%, the residual activity [35] was 100% and the residual activity [36] was 100%. It also gave a residual activity [37] of 69%, a residual activity [38] of 100% and a residual activity [39] of 92%. For the same compound, the residual activity [40] was 100%, the residual activity [41] was 102% and the inhibition [42] was -3.48%. For the same compound, the residual activity [43] was 91% and the residual activity [44] was 72%.

— ChEMBL document CHEMBL4507283, “Data for DCP probe BI-1935” (2021)
